Reference: patent US10577317B2, “Crystal forms and production methods thereof” (Sunovion Pharmaceuticals Inc., priority 2017, dated 2020)
Where two headings read alike, the source gives them in different places.

Assays:
Type in all cases: physicochemical
[1] = Solubility (mg/mL) in water, buffers, simulated fluids and organic solvents (Table 1)
[2] = Solid form stability on storage at 25° C. and 60% relative humidity; conditions: after 4 months at 25° C. and 60% relative humidity (RH)
[3] = DVS water sorption isotherm, 25° C. scanned over 0 to 95% relative humidity (hygroscopicity)
From the text: In various embodiments, the hygroscopicity of crystal forms of racemic amisulpride, enantiomeric amisulpride, and enantiomeric amisulpride solvates are characterized by dynamic vapor sorption (DVS). DVS is a gravimetric technique that measures how much of a solvent is absorbed by a sample by varying the vapor concentration surrounding the sample (e.g., relative humidity) and measuring the change in mass. In the present application, DVS is used to generate water sorption isotherms, which represent the equilibrium amount of vapor sorbed as a function of steady state relative vapor pressure at a constant temperature.

[4] = DVS, 25° C., 0 to 95% relative humidity

solubility ([1]; aqueous buffer, 0.05M Acetate Buffer, solution pH 4.5, read-out: Solubility (mg/mL): 0.05M Acetate Buffer): > 100 mg/mL
solubility ([1]; pH 1.1, Simulated Gastric Fluid (no enzyme), pH adjusted to 1.1 (Form A), 1.2 (Form A′), read-out: Solubility (mg/mL): Simulated Gastric Fluid (no enzyme)): > 100 mg/mL
solubility ([1]; pH 6.7, fassgf or other biorelevant, Simulated Intestinal Fluid (no enzyme), pH adjusted to 6.7 (Form A), 6.9 (Form A′), read-out: Solubility (mg/mL): Simulated Intestinal Fluid (no enzyme)): > 100 mg/mL
maximum mass change in water sorption isotherms [3, 4]: 0.183%
average maximum mass change ([3]; DVS, average over the samples of Tables 6A-6C (Form A′) or 6D-6E (Form A)): about 0.17%
Change Mass ([3]; FIG. 2D, RH 1.28 %, elapse time 173.0 min): 0.000 wt %
Change Mass ([3]; FIG. 2D, RH 5.03 %, elapse time 515.4 min): 0.004 wt %
Change Mass ([3]; FIG. 2D, RH 5.05 %, elapse time 854.6 min): 0.008 wt %
Change Mass ([3]; FIG. 2D, RH 5.19 %, elapse time 181.6 min): 0.004 wt %
Change Mass ([3]; FIG. 2D, RH 9.87 %, elapse time 523.4 min): 0.008 wt %
Change Mass ([3]; FIG. 2D, RH 10.07 %, elapse time 189.1 min): 0.010 wt %
Change Mass ([3]; FIG. 2D, RH 10.08 %, elapse time 507.4 min): 0.010 wt %
Change Mass ([3]; FIG. 2D, RH 10.10 %, elapse time 846.6 min): 0.014 wt %
Change Mass ([3]; FIG. 2D, RH 14.89 %, elapse time 531.4 min): 0.014 wt %
Change Mass ([3]; FIG. 2D, RH 14.91 %, elapse time 196.6 min): 0.017 wt %
Change Mass ([3]; FIG. 2D, RH 15.10 %, elapse time 499.4 min): 0.017 wt %
Change Mass ([3]; FIG. 2D, RH 15.15 %, elapse time 838.6 min): 0.021 wt %
Change Mass ([3]; FIG. 2D, RH 19.83 %, elapse time 204.6 min): 0.024 wt %
Change Mass ([3]; FIG. 2D, RH 19.90 %, elapse time 539.4 min): 0.020 wt %
Change Mass ([3]; FIG. 2D, RH 20.10 %, elapse time 491.4 min): 0.023 wt %
Change Mass ([3]; FIG. 2D, RH 20.13 %, elapse time 830.5 min): 0.028 wt %
Change Mass ([3]; FIG. 2D, RH 24.87 %, elapse time 548.4 min): 0.027 wt %
Change Mass ([3]; FIG. 2D, RH 24.89 %, elapse time 483.4 min): 0.029 wt %
Change Mass ([3]; FIG. 2D, RH 24.93 %, elapse time 822.5 min): 0.033 wt %
Change Mass ([3]; FIG. 2D, RH 24.98 %, elapse time 213.7 min): 0.031 wt %
Change Mass ([3]; FIG. 2D, RH 29.88 %, elapse time 222.7 min): 0.039 wt %
Change Mass ([3]; FIG. 2D, RH 29.89 %, elapse time 557.4 min): 0.034 wt %
Change Mass ([3]; FIG. 2D, RH 30.13 %, elapse time 475.9 min): 0.036 wt %
Change Mass ([3]; FIG. 2D, RH 30.15 %, elapse time 815.0 min): 0.040 wt %
Change Mass ([3]; FIG. 2D, RH 34.83 %, elapse time 566.4 min): 0.042 wt %
Change Mass ([3]; FIG. 2D, RH 34.93 %, elapse time 467.4 min): 0.043 wt %
Change Mass ([3]; FIG. 2D, RH 34.94 %, elapse time 806.5 min): 0.046 wt %
Change Mass ([3]; FIG. 2D, RH 34.97 %, elapse time 231.7 min): 0.046 wt %
Change Mass ([3]; FIG. 2D, RH 39.80 %, elapse time 240.7 min): 0.054 wt %
Change Mass ([3]; FIG. 2D, RH 39.88 %, elapse time 457.4 min): 0.050 wt %
Change Mass ([3]; FIG. 2D, RH 39.95 %, elapse time 796.5 min): 0.053 wt %
Change Mass ([3]; FIG. 2D, RH 39.99 %, elapse time 577.4 min): 0.049 wt %
Change Mass ([3]; FIG. 2D, RH 44.82 %, elapse time 249.7 min): 0.061 wt %
Change Mass ([3]; FIG. 2D, RH 44.93 %, elapse time 586.4 min): 0.056 wt %
Change Mass ([3]; FIG. 2D, RH 45.05 %, elapse time 786.5 min): 0.060 wt %
Change Mass ([3]; FIG. 2D, RH 45.17 %, elapse time 447.9 min): 0.058 wt %
Change Mass ([3]; FIG. 2D, RH 49.96 %, elapse time 597.5 min): 0.063 wt %
Change Mass ([3]; FIG. 2D, RH 49.98 %, elapse time 258.7 min): 0.068 wt %
Change Mass ([3]; FIG. 2D, RH 50.04 %, elapse time 775.5 min): 0.067 wt %
Change Mass ([3]; FIG. 2D, RH 50.07 %, elapse time 438.8 min): 0.065 wt %
Change Mass ([3]; FIG. 2D, RH 54.98 %, elapse time 606.5 min): 0.070 wt %
Change Mass ([3]; FIG. 2D, RH 55.01 %, elapse time 269.7 min): 0.076 wt %
Change Mass ([3]; FIG. 2D, RH 55.07 %, elapse time 427.8 min): 0.073 wt %
Change Mass ([3]; FIG. 2D, RH 55.14 %, elapse time 764.5 min): 0.074 wt %
Change Mass ([3]; FIG. 2D, RH 59.95 %, elapse time 278.7 min): 0.084 wt %
Change Mass ([3]; FIG. 2D, RH 59.95 %, elapse time 617.5 min): 0.078 wt %
Change Mass ([3]; FIG. 2D, RH 60.08 %, elapse time 416.8 min): 0.081 wt %
Change Mass ([3]; FIG. 2D, RH 60.16 %, elapse time 753.5 min): 0.082 wt %
Change Mass ([3]; FIG. 2D, RH 64.91 %, elapse time 628.5 min): 0.086 wt %
Change Mass ([3]; FIG. 2D, RH 64.92 %, elapse time 289.7 min): 0.091 wt %
Change Mass ([3]; FIG. 2D, RH 65.11 %, elapse time 742.5 min): 0.090 wt %
Change Mass ([3]; FIG. 2D, RH 65.16 %, elapse time 405.8 min): 0.090 wt %
Change Mass ([3]; FIG. 2D, RH 69.88 %, elapse time 300.7 min): 0.099 wt %
Change Mass ([3]; FIG. 2D, RH 69.98 %, elapse time 639.5 min): 0.094 wt %
Change Mass ([3]; FIG. 2D, RH 70.09 %, elapse time 394.8 min): 0.099 wt %
Change Mass ([3]; FIG. 2D, RH 70.18 %, elapse time 731.5 min): 0.098 wt %
Change Mass ([3]; FIG. 2D, RH 74.63 %, elapse time 648.5 min): 0.103 wt %
Change Mass ([3]; FIG. 2D, RH 74.64 %, elapse time 309.7 min): 0.108 wt %
Change Mass ([3]; FIG. 2D, RH 75.39 %, elapse time 383.8 min): 0.109 wt %
Change Mass ([3]; FIG. 2D, RH 75.48 %, elapse time 720.5 min): 0.109 wt %
Change Mass ([3]; FIG. 2D, RH 79.56 %, elapse time 318.7 min): 0.119 wt %
Change Mass ([3]; FIG. 2D, RH 79.66 %, elapse time 657.5 min): 0.113 wt %
Change Mass ([3]; FIG. 2D, RH 80.45 %, elapse time 374.8 min): 0.124 wt %
Change Mass ([3]; FIG. 2D, RH 80.45 %, elapse time 711.5 min): 0.123 wt %
Change Mass ([3]; FIG. 2D, RH 84.45 %, elapse time 666.5 min): 0.128 wt %
Change Mass ([3]; FIG. 2D, RH 84.52 %, elapse time 327.8 min): 0.134 wt %
Change Mass ([3]; FIG. 2D, RH 85.43 %, elapse time 702.5 min): 0.152 wt %
Change Mass ([3]; FIG. 2D, RH 85.47 %, elapse time 365.8 min): 0.155 wt %
Change Mass ([3]; FIG. 2D, RH 89.51 %, elapse time 336.8 min): 0.152 wt %
Change Mass ([3]; FIG. 2D, RH 89.63 %, elapse time 675.5 min): 0.147 wt %
Change Mass ([3]; FIG. 2D, RH 90.09 %, elapse time 356.8 min): 0.168 wt %
Change Mass ([3]; FIG. 2D, RH 90.20 %, elapse time 693.5 min): 0.164 wt %
Change Mass ([3]; FIG. 2D, RH 94.80 %, elapse time 347.8 min): 0.183 wt %
Change Mass ([3]; FIG. 2D, RH 94.89 %, elapse time 684.5 min): 0.175 wt %
Change Mass ([3]; FIG. 2E, RH 19.69 %, elapse time 383.8 min): 0.012 wt %
Change Mass ([3]; FIG. 2E, RH 24.95 %, elapse time 392.9 min): 0.018 wt %
Change Mass ([3]; FIG. 2E, RH 29.81 %, elapse time 401.9 min): 0.024 wt %
Change Mass ([3]; FIG. 2E, RH 34.97 %, elapse time 412.9 min): 0.032 wt %
Change Mass ([3]; FIG. 2E, RH 39.81 %, elapse time 421.9 min): 0.038 wt %
Change Mass ([3]; FIG. 2E, RH 44.97 %, elapse time 432.9 min): 0.044 wt %
Change Mass ([3]; FIG. 2E, RH 45.03 %, elapse time 627.0 min): 0.046 wt %
Change Mass ([3]; FIG. 2E, RH 49.81 %, elapse time 441.9 min): 0.051 wt %
Change Mass ([3]; FIG. 2E, RH 50.10 %, elapse time 618.0 min): 0.052 wt %
Change Mass ([3]; FIG. 2E, RH 54.81 %, elapse time 450.9 min): 0.059 wt %
Change Mass ([3]; FIG. 2E, RH 55.04 %, elapse time 609.0 min): 0.059 wt %
Change Mass ([3]; FIG. 2E, RH 59.91 %, elapse time 461.9 min): 0.066 wt %
Change Mass ([3]; FIG. 2E, RH 60.10 %, elapse time 598.0 min): 0.067 wt %
Change Mass ([3]; FIG. 2E, RH 64.88 %, elapse time 472.9 min): 0.074 wt %
Change Mass ([3]; FIG. 2E, RH 65.19 %, elapse time 586.9 min): 0.075 wt %
Change Mass ([3]; FIG. 2E, RH 69.81 %, elapse time 483.9 min): 0.082 wt %
Change Mass ([3]; FIG. 2E, RH 70.16 %, elapse time 575.9 min): 0.083 wt %
Change Mass ([3]; FIG. 2E, RH 74.59 %, elapse time 492.9 min): 0.090 wt %
Change Mass ([3]; FIG. 2E, RH 75.44 %, elapse time 564.9 min): 0.092 wt %
Change Mass ([3]; FIG. 2E, RH 79.63 %, elapse time 501.9 min): 0.100 wt %
Change Mass ([3]; FIG. 2E, RH 80.52 %, elapse time 555.9 min): 0.105 wt %
Change Mass ([3]; FIG. 2E, RH 84.55 %, elapse time 510.9 min): 0.112 wt %
Change Mass ([3]; FIG. 2E, RH 85.39 %, elapse time 546.9 min): 0.126 wt %
Change Mass ([3]; FIG. 2E, RH 89.85 %, elapse time 519.9 min): 0.127 wt %
Change Mass ([3]; FIG. 2E, RH 90.10 %, elapse time 537.9 min): 0.137 wt %
Change Mass ([3]; FIG. 2E, RH 94.52 %, elapse time 528.9 min): 0.149 wt %
SMILES: CCN1CCC[C@@H]1CNC(=O)c1cc(S(=O)(=O)CC)c(N)cc1OC [(R)-amisulpride Form A, R-4-Amino-N-[(1-ethyl-2-pyrrolidinyl)methyl]-5-(ethylsulfonyl)-2-methoxybenzamide]
thermodynamic stability of crystal form (conversion to other polymorphs or amorphous form) [2]: not substantially converting to other polymorphs or amorphous form
hygroscopicity [3, 4]: substantially non-hygroscopic (less than a 1% maximum mass change in water sorption isotherms, at 25 °C scanned over 0 to 95% relative humidity)
